Experimental data: patent US20200407717A1, “METHODS OF MODULATING ANTISENSE ACTIVITY” (Ionis Pharmaceuticals, Inc., priority 2018, published 2020)
e = 2'-O-(2-methoxyethyl) (MOE); d = 2'-deoxy (DNA)

Test system: Drosha mRNA
Assay: Antisense activity by RT-qPCR, Drosha, A431 cells
Type: cell-based, Human
Description: A431 cells were grown at 10,000 cells per well and pre-treated with a variety of growth factors to determine if the addition of exogenous growth factors affects antisense activity or uptake of modified antisense oligonucleotides in a cell. The growth factors used were EGF, insulin growth factor (IGF), transforming growth factor (TGF), […] (VEGF), hepatocyte growth factor (HGF), platelet growth factor (PGF) and fibroblasts growth factor (FGF). To test antisense activity, cells were treated for 4 hours with a growth factor or vehicle alone, and then treated with compound no. 25690 (complementary to Drosha), compound no. 395254 (complementary to Malat1), or vehicle alone. RNA was isolated from the cells and Drosha or Malat1 RNA levels were measured by RT-qPCR. Human primer probe set 13816 (forward sequence […], designated herein as SEQ ID NO: 3; reverse sequence […], designated herein as SEQ ID NO: 4; probe sequence […], designated herein as SEQ ID NO: 5) was used to measure Drosha mRNA levels and primer probe set RTS2736 (forward sequence […], designated herein as SEQ ID NO: 6; reverse sequence […], designated herein as SEQ ID NO: 7; probe sequence TGCCACATCGCCACCCCGT, designated herein as SEQ ID NO: 8) was used to measure Malat1 RNA levels. Drosha and Malat1 RNA levels were normalized to total RNA content, as measured by RIBOGREEN®. Results are presented in the tables below as normalized RNA levels, relative to untreated control cells.
A431 cells were treated with EGF or TGF at 200 ng/mL in the presence or absence of 1 μM of the EGFR tyrosine kinase inhibitor PD174265. The cells were then treated with compound no. 25690 or compound no. 395254 as in Example 8. Total RNA was isolated and analyzed by RT-qPCR, as in Example 8.
Following siRNA treatment, cells were treated with compound no. 25690 or compound no. 395254 in the presence or absence of EGF. 16 hours after treatment with a PS-ASO with or without EGF, cells were harvested, and RNA levels were analyzed via RT-qPCR as in Example 8.

Sequence: AGGAAGGAAGCTGGCGATCT (sugars from the 5' end e5 d10 e5, all phosphorothioate, methylation of C not given here) [compound 25690]
- Drosha mRNA (% Control) (6250 nM, Control): 66.2 % Control
- Drosha mRNA (% Control) (6250 nM, Control Luciferase siRNA): 35.2 % Control
- Drosha mRNA (% Control) (6250 nM, Control Luciferase siRNA, Table 26): 47.8 % Control
- Drosha mRNA (% Control) (6250 nM, Control luciferase + EGF): 40.9 % Control
- Drosha mRNA (% Control) (6250 nM, Control, Table 20): 54.0 % Control
- Drosha mRNA (% Control) (6250 nM, EGF): 48.4 % Control
- Drosha mRNA (% Control) (6250 nM, EGF+PD174265): 64.7 % Control
- Drosha mRNA (% Control) (6250 nM, EGFR siRNA-1): 41.9 % Control
- Drosha mRNA (% Control) (6250 nM, EGFR siRNA-2): 39.2 % Control
- Drosha mRNA (% Control) (6250 nM, EGFR siRNA-2 + EGF): 62.5 % Control
- Drosha mRNA (% Control) (6250 nM, EGFR siRNA-2, Table 26): 64.8 % Control
- Drosha mRNA (% Control) (6250 nM, TGF): 43.1 % Control
- Drosha mRNA (% Control) (6250 nM, TGF+PD174265): 57.0 % Control
- Drosha mRNA (% Control) (10000 nM, Control): 48.2 % Control
- Drosha mRNA (% Control) (10000 nM, EGF): 27.7 % Control
- Drosha mRNA (% Control) (10000 nM, TGF): 29.7 % Control
- Drosha mRNA (% Control) (12500 nM, Control): 56.4 % Control
- Drosha mRNA (% Control) (12500 nM, Control Luciferase siRNA): 29.3 % Control
- Drosha mRNA (% Control) (12500 nM, Control Luciferase siRNA, Table 26): 41.0 % Control
- Drosha mRNA (% Control) (12500 nM, Control luciferase + EGF): 30.9 % Control
- Drosha mRNA (% Control) (12500 nM, Control, Table 20): 47.6 % Control
- Drosha mRNA (% Control) (12500 nM, EGF): 40.1 % Control
- Drosha mRNA (% Control) (12500 nM, EGF+PD174265): 53.6 % Control
- Drosha mRNA (% Control) (12500 nM, EGFR siRNA-1): 32.4 % Control
- Drosha mRNA (% Control) (12500 nM, EGFR siRNA-2): 39.1 % Control
- Drosha mRNA (% Control) (12500 nM, EGFR siRNA-2 + EGF): 47.1 % Control
- Drosha mRNA (% Control) (12500 nM, EGFR siRNA-2, Table 26): 49.2 % Control
- Drosha mRNA (% Control) (12500 nM, TGF): 29.7 % Control
- Drosha mRNA (% Control) (12500 nM, TGF+PD174265): 44.9 % Control
- Drosha mRNA (% Control) (20000 nM, Control): 48.8 % Control
- Drosha mRNA (% Control) (20000 nM, EGF): 25.4 % Control
- Drosha mRNA (% Control) (20000 nM, TGF): 25.5 % Control
- Drosha mRNA (% Control) (25000 nM, Control): 45.2 % Control
- Drosha mRNA (% Control) (25000 nM, Control Luciferase siRNA): 24.0 % Control
- Drosha mRNA (% Control) (25000 nM, Control Luciferase siRNA, Table 26): 37.2 % Control
- Drosha mRNA (% Control) (25000 nM, Control luciferase + EGF): 27.1 % Control
- Drosha mRNA (% Control) (25000 nM, Control, Table 20): 38.9 % Control
- Drosha mRNA (% Control) (25000 nM, EGF): 40.1 % Control
- Drosha mRNA (% Control) (25000 nM, EGF+PD174265): 51.2 % Control
- Drosha mRNA (% Control) (25000 nM, EGFR siRNA-1): 29.9 % Control
- Drosha mRNA (% Control) (25000 nM, EGFR siRNA-2): 35.5 % Control
- Drosha mRNA (% Control) (25000 nM, EGFR siRNA-2 + EGF): 41.2 % Control
- Drosha mRNA (% Control) (25000 nM, EGFR siRNA-2, Table 26): 42.3 % Control
- Drosha mRNA (% Control) (25000 nM, TGF): 23.5 % Control
- Drosha mRNA (% Control) (25000 nM, TGF+PD174265): 37.1 % Control
- Drosha mRNA (% Control) (40000 nM, Control): 44.3 % Control
- Drosha mRNA (% Control) (40000 nM, EGF): 23.6 % Control
- Drosha mRNA (% Control) (40000 nM, TGF): 22.7 % Control
- Drosha mRNA (% Control) (50000 nM, Control): 40.2 % Control
- Drosha mRNA (% Control) (50000 nM, Control Luciferase siRNA): 22.4 % Control
- Drosha mRNA (% Control) (50000 nM, Control Luciferase siRNA, Table 26): 33.1 % Control
- Drosha mRNA (% Control) (50000 nM, Control luciferase + EGF): 23.2 % Control
- Drosha mRNA (% Control) (50000 nM, Control, Table 20): 28.2 % Control
- Drosha mRNA (% Control) (50000 nM, EGF): 35.1 % Control
- Drosha mRNA (% Control) (50000 nM, EGF+PD174265): 45.3 % Control
- Drosha mRNA (% Control) (50000 nM, EGFR siRNA-1): 25.7 % Control
- Drosha mRNA (% Control) (50000 nM, EGFR siRNA-2): 31.2 % Control
- Drosha mRNA (% Control) (50000 nM, EGFR siRNA-2 + EGF): 31.3 % Control
- Drosha mRNA (% Control) (50000 nM, EGFR siRNA-2, Table 26): 29.3 % Control
- Drosha mRNA (% Control) (50000 nM, TGF): 17.2 % Control
- Drosha mRNA (% Control) (50000 nM, TGF+PD174265): 35.2 % Control
- Drosha mRNA (% Control) (100000 nM, Control): 39.2 % Control
- Drosha mRNA (% Control) (100000 nM, Control Luciferase siRNA): 19.7 % Control
- Drosha mRNA (% Control) (100000 nM, Control Luciferase siRNA, Table 26): 32.1 % Control
- Drosha mRNA (% Control) (100000 nM, Control luciferase + EGF): 21.0 % Control
- Drosha mRNA (% Control) (100000 nM, Control, Table 20): 25.2 % Control
- Drosha mRNA (% Control) (100000 nM, EGF): 32.9 % Control
- Drosha mRNA (% Control) (100000 nM, EGF+PD174265): 35.2 % Control
- Drosha mRNA (% Control) (100000 nM, EGFR siRNA-1): 24.1 % Control
- Drosha mRNA (% Control) (100000 nM, EGFR siRNA-2): 28.4 % Control
- Drosha mRNA (% Control) (100000 nM, EGFR siRNA-2 + EGF): 30.4 % Control
- Drosha mRNA (% Control) (100000 nM, EGFR siRNA-2, Table 26): 31.2 % Control
- Drosha mRNA (% Control) (100000 nM, TGF): 15.2 % Control
- Drosha mRNA (% Control) (100000 nM, TGF+PD174265): 30.2 % Control
- Drosha mRNA (% Control) (200000 nM, Control): 30.2 % Control
- Drosha mRNA (% Control) (200000 nM, Control Luciferase siRNA): 14.9 % Control
- Drosha mRNA (% Control) (200000 nM, Control Luciferase siRNA, Table 26): 25.2 % Control
- Drosha mRNA (% Control) (200000 nM, Control luciferase + EGF): 21.4 % Control
- Drosha mRNA (% Control) (200000 nM, Control, Table 20): 21.2 % Control
- Drosha mRNA (% Control) (200000 nM, EGF): 25.1 % Control
- Drosha mRNA (% Control) (200000 nM, EGF+PD174265): 33.2 % Control
- Drosha mRNA (% Control) (200000 nM, EGFR siRNA-1): 18.5 % Control
- Drosha mRNA (% Control) (200000 nM, EGFR siRNA-2): 20.8 % Control
- Drosha mRNA (% Control) (200000 nM, EGFR siRNA-2 + EGF): 25.1 % Control
- Drosha mRNA (% Control) (200000 nM, EGFR siRNA-2, Table 26): 26.1 % Control
- Drosha mRNA (% Control) (200000 nM, TGF): 15.2 % Control
- Drosha mRNA (% Control) (200000 nM, TGF+PD174265): 27.2 % Control
- IC50 (Control (no growth factor), Table 15): 1.47 ± 0.05 µM
- IC50 (Control Luciferase siRNA, Table 24): 1.31 ± 0.04 µM
- IC50 (Control Luciferase siRNA, Table 26): 1.5 ± 0.05 µM
- IC50 (Control luciferase + EGF, Table 26): 0.63 ± 0.04 µM
- IC50 (Control, Table 18): 1.62 ± 0.09 µM
- IC50 (Control, Table 20): 1.39 ± 0.06 µM
- IC50 (EGF 200 ng/mL + 1 μM PD174265, Table 18): 1.5 ± 0.05 µM
- IC50 (EGF 200 ng/mL, Table 18): 0.58 ± 0.07 µM
- IC50 (EGF pre-treatment 4 hours, Table 15): 0.6 ± 0.08 µM
- IC50 (EGFR siRNA-1, Table 24): 2.11 ± 0.1 µM
- IC50 (EGFR siRNA-2 + EGF, Table 26): 2.33 ± 0.11 µM
- IC50 (EGFR siRNA-2, Table 24): 2.79 ± 0.07 µM
- IC50 (EGFR siRNA-2, Table 26): 2.73 ± 0.1 µM
- IC50 (TGF 200 ng/mL + 1 μM PD174265, Table 20): 1.49 ± 0.04 µM
- IC50 (TGF 200 ng/mL, Table 20): 0.5 ± 0.04 µM
- IC50 (TGF pre-treatment 4 hours, Table 15): 0.59 ± 0.07 µM
- half maximal inhibitory concentration, Drosha (cells treated with IGF, FGF, HGF, VEGF or PGF relative to PS-ASO alone (data not shown)): unchanged
